Tested on: CN0375-F725-PDC KRAS spheroid viability
Test: Anticancer human tumor CN0375-F725-PDC patient-derived colon carcinoma cell line growth inhibition [KRAS2]
Conditions: spheroids with HUVEC and MSC; for viability, T/C: stronger effect = lower value
Method in brief: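 KRAS-mutant tumor cells were grown as spheroids with HUVEC endothelial cells and human MSCs as stroma. Targeted agents were tested alone and with KRAS pathway inhibitors. Doses started at or near clinical Cmax, or 10 microM, descending half-log.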

[1] = curve of first compound, second compound 0.1 µM
[2] = curve of first compound, second compound 0.316 µM
[3] = curve of first compound, second compound 1 µM
[4] = curve of first compound, second compound 3.16 µM
[5] = curve of first compound, second compound 10 µM
[6] = second compound 0.1 µM, first compound 0.0316 µM
[7] = second compound 0.1 µM, first compound 0.1 µM
[8] = second compound 0.1 µM, first compound 0.316 µM
[9] = second compound 0.1 µM, first compound 1 µM
[10] = second compound 0.1 µM, first compound 3.16 µM
[11] = second compound 0.316 µM, first compound 0.0316 µM
[12] = second compound 0.316 µM, first compound 0.1 µM
[13] = second compound 0.316 µM, first compound 0.316 µM
[14] = second compound 0.316 µM, first compound 1 µM
[15] = second compound 0.316 µM, first compound 3.16 µM
[16] = second compound 1 µM, first compound 0.0316 µM
[17] = second compound 1 µM, first compound 0.1 µM
[18] = second compound 1 µM, first compound 0.316 µM
[19] = second compound 1 µM, first compound 1 µM
[20] = second compound 1 µM, first compound 3.16 µM
[21] = second compound 3.16 µM, first compound 0.0316 µM
[22] = second compound 3.16 µM, first compound 0.1 µM
[23] = second compound 3.16 µM, first compound 0.316 µM
[24] = second compound 3.16 µM, first compound 1 µM
[25] = second compound 3.16 µM, first compound 3.16 µM
[26] = second compound 10 µM, first compound 0.0316 µM
[27] = second compound 10 µM, first compound 0.1 µM
[28] = second compound 0.1 µM, first compound 0.01 µM
[29] = second compound 0.316 µM, first compound 0.01 µM
[30] = second compound 1 µM, first compound 0.01 µM
[31] = second compound 3.16 µM, first compound 0.01 µM
[32] = second compound 0.1 µM, first compound 0.000316 µM
[33] = second compound 0.1 µM, first compound 0.001 µM
[34] = second compound 0.1 µM, first compound 0.00316 µM
[35] = second compound 0.316 µM, first compound 0.000316 µM
[36] = second compound 0.316 µM, first compound 0.001 µM
[37] = second compound 0.316 µM, first compound 0.00316 µM
[38] = second compound 1 µM, first compound 0.000316 µM
[39] = second compound 1 µM, first compound 0.001 µM
[40] = second compound 1 µM, first compound 0.00316 µM
[41] = second compound 3.16 µM, first compound 0.000316 µM
[42] = second compound 3.16 µM, first compound 0.001 µM
[43] = second compound 3.16 µM, first compound 0.00316 µM
[44] = second compound 10 µM, first compound 0.000316 µM
[45] = second compound 10 µM, first compound 0.001 µM
[46] = second compound 10 µM, first compound 0.00316 µM
[47] = second compound 10 µM, first compound 0.01 µM
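Further: spheroids exposed to agents for 7 days.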

## CC1OCC2(CCN(c3cnc(Sc4ccnc(N)c4Cl)c(N)n3)CC2)C1N (configuration not stated) + C=CC(=O)N1CCN(c2nc(=O)n(-c3c(C)ccnc3C(C)C)c3nc(-c4c(O)cccc4F)c(F)cc23)C(C)C1
[1]
  IC50: > 10000 nM
[2]
  IC50: > 10000 nM
[3]
  IC50: > 10000 nM
[4]
  IC50: > 10000 nM
[5]
  IC50: > 10000 nM
[6]
  viability, T/C: 102%
[7]
  viability, T/C: 86.4%
[8]
  viability, T/C: 82.5%
[9]
  viability, T/C: 79.1%
[10]
  viability, T/C: 77.2%
Second compound 0.1 µM, first compound 10 µM
  viability, T/C: 63.6%
[11]
  viability, T/C: 98.8%
[12]
  viability, T/C: 85.5%
[13]
  viability, T/C: 78.3%
[14]
  viability, T/C: 79.9%
[15]
  viability, T/C: 77.5%
Second compound 0.316 µM, first compound 10 µM
  viability, T/C: 59.8%
[16]
  viability, T/C: 96.3%
[17]
  viability, T/C: 99.3%
[18]
  viability, T/C: 86.3%
[19]
  viability, T/C: 82.9%
[20]
  viability, T/C: 75.2%
Second compound 1 µM, first compound 10 µM
  viability, T/C: 65.6%
[21]
  viability, T/C: 104%
[22]
  viability, T/C: 92.4%
[23]
  viability, T/C: 81.4%
[24]
  viability, T/C: 81%
[25]
  viability, T/C: 71.6%
Second compound 3.16 µM, first compound 10 µM
  viability, T/C: 65.6%
[26]
  viability, T/C: 94%
[27]
  viability, T/C: 92.2%
Second compound 10 µM, first compound 0.316 µM
  viability, T/C: 77.9%
Second compound 10 µM, first compound 1 µM
  viability, T/C: 66.3%
Second compound 10 µM, first compound 3.16 µM
  viability, T/C: 61.8%
Second compound 10 µM, first compound 10 µM
  viability, T/C: 49.6%

## CC(=O)OC12COC1CC(O)C1(C)C(=O)C(O)C3=C(C)C(OC(=O)C(O)C(NC(=O)OC(C)(C)C)c4ccccc4)CC(O)(C(OC(=O)c4ccccc4)C21)C3(C)C (configuration not stated) + C=CC(=O)N1CCN(c2nc(OCC3CCCN3C)nc3c2CCN(c2cccc4cccc(C)c24)C3)CC1CC#N
Curve of first compound, second compound 0.0316 µM
  IC50: > 3160 nM
[1]
  IC50: > 3160 nM
[2]
  IC50: > 3160 nM
[3]
  IC50: > 3160 nM
[4]
  IC50: > 3160 nM
Second compound 0.0316 µM, first compound 0.01 µM
  viability, T/C: 99.3%
Second compound 0.0316 µM, first compound 0.0316 µM
  viability, T/C: 99.2%
Second compound 0.0316 µM, first compound 0.1 µM
  viability, T/C: 87.2%
Second compound 0.0316 µM, first compound 0.316 µM
  viability, T/C: 82.5%
Second compound 0.0316 µM, first compound 1 µM
  viability, T/C: 81.8%
Second compound 0.0316 µM, first compound 3.16 µM
  viability, T/C: 79.2%
[28]
  viability, T/C: 104%
[6]
  viability, T/C: 102%
[7]
  viability, T/C: 86.3%
[8]
  viability, T/C: 87%
[9]
  viability, T/C: 79.5%
[10]
  viability, T/C: 76.4%
[29]
  viability, T/C: 100%
[11]
  viability, T/C: 100%
[12]
  viability, T/C: 87.3%
[13]
  viability, T/C: 85.2%
[14]
  viability, T/C: 79.3%
[15]
  viability, T/C: 75.9%
[30]
  viability, T/C: 96.7%
[16]
  viability, T/C: 91.8%
[17]
  viability, T/C: 91.6%
[18]
  viability, T/C: 78.8%
[19]
  viability, T/C: 78.6%
[20]
  viability, T/C: 73.6%
[31]
  viability, T/C: 96.2%
[21]
  viability, T/C: 98.9%
[22]
  viability, T/C: 93.7%
[23]
  viability, T/C: 83.5%
[24]
  viability, T/C: 88.3%
[25]
  viability, T/C: 79%

## CC(C)n1nc(-c2ccc3oc(N)nc3c2)c2c(N)ncnc21 + COc1cc2nc(C)nc(NC(C)c3cc(N)cc(C(F)(F)F)c3)c2cc1OC1CCOC1
[1]
  IC50: 59.1 nM
[2]
  IC50: 49 nM
[3]
  IC50: 36.5 nM
[4]
  IC50: 25.9 nM
[5]
  IC50: < 0.316 nM
[32]
  viability, T/C: 101%
[33]
  viability, T/C: 93.6%
[34]
  viability, T/C: 78%
[28]
  viability, T/C: 70.4%
[6]
  viability, T/C: 54.5%
[7]
  viability, T/C: 45.5%
[35]
  viability, T/C: 95.1%
[36]
  viability, T/C: 89.7%
[37]
  viability, T/C: 77.6%
[29]
  viability, T/C: 66%
[11]
  viability, T/C: 54.2%
[12]
  viability, T/C: 43.7%
[38]
  viability, T/C: 90.5%
[39]
  viability, T/C: 88.6%
[40]
  viability, T/C: 76%
[30]
  viability, T/C: 66.4%
[16]
  viability, T/C: 50.2%
[17]
  viability, T/C: 42.1%
[41]
  viability, T/C: 85.2%
[42]
  viability, T/C: 80.8%
[43]
  viability, T/C: 72.9%
[31]
  viability, T/C: 59%
[21]
  viability, T/C: 48.5%
[22]
  viability, T/C: 40.8%
[44]
  viability, T/C: 13.7%
[45]
  viability, T/C: 14.8%
[46]
  viability, T/C: 25.4%
[47]
  viability, T/C: 22%
[26]
  viability, T/C: 18.1%
[27]
  viability, T/C: 13.7%

## Cn1ncnc1[C@H]1c2n[nH]c(=O)c3cc(F)cc(c23)N[C@@H]1c1ccc(F)cc1 + CC1OCC2(CCN(c3cnc(Sc4ccnc(N)c4Cl)c(N)n3)CC2)C1N
[1]
  IC50: > 100 nM
[2]
  IC50: > 100 nM
[3]
  IC50: > 100 nM
[4]
  IC50: > 100 nM
[5]
  IC50: > 100 nM
[32]
  viability, T/C: 103%
[33]
  viability, T/C: 95.2%
[34]
  viability, T/C: 93.4%
[28]
  viability, T/C: 91.6%
[6]
  viability, T/C: 99.2%
[7]
  viability, T/C: 90.3%
[35]
  viability, T/C: 97.5%
[36]
  viability, T/C: 87.3%
[37]
  viability, T/C: 87.8%
[29]
  viability, T/C: 85.2%
[11]
  viability, T/C: 92.5%
[12]
  viability, T/C: 81%
[38]
  viability, T/C: 88.4%
[39]
  viability, T/C: 89.5%
[40]
  viability, T/C: 83.5%
[30]
  viability, T/C: 86.3%
[16]
  viability, T/C: 82.1%
[17]
  viability, T/C: 80%
[41]
  viability, T/C: 79.5%
[42]
  viability, T/C: 80.4%
[43]
  viability, T/C: 81%
[31]
  viability, T/C: 76.3%
[21]
  viability, T/C: 75.5%
[22]
  viability, T/C: 78.2%
[44]
  viability, T/C: 70.9%
[45]
  viability, T/C: 72.7%
[46]
  viability, T/C: 67.2%
[47]
  viability, T/C: 63.9%
[26]
  viability, T/C: 61.1%
[27]
  viability, T/C: 61.2%

## CC1COCCN1c1cc(-c2ccnn2C)c2ccnc(-c3ccn[nH]3)c2n1 (configuration not stated)
Compound 0.01 µM
  viability, T/C: 105% [middle of 5 runs]
Compound 0.0316 µM
  viability, T/C: 97.3% [middle of 5 runs]
Compound 0.1 µM
  viability, T/C: 90.8% [middle of 5 runs]
Compound 0.316 µM
  viability, T/C: 85.7% [middle of 5 runs]
Compound 1 µM
  viability, T/C: 72.1% [middle of 5 runs]
Compound 3.16 µM
  viability, T/C: 58.4% [middle of 5 runs]
Curve of compound
  IC50: > 3160 nM

— PubChem BioAssay AID1963860 (Molecular Pharmacology Branch, DTP, NCI, 2024)
